Test results taken from US20040063662A1, “Selenophene anti-tumor agents” (priority 1996, published 2004).

Legend:
[1] = test system: CCRF-CEM; test: NCI human tumor cell panel: CCRF-CEM (Leukemia); type: cell-based; settings: Leukemia; for GI50: read-out: Log10 GI50 (converted); for IC (TGI): read-out: Log10 TGI (converted)
[2] = test system: HL-60(TB); test: NCI human tumor cell panel: HL-60(TB) (Leukemia); type: cell-based; settings: Leukemia; for GI50: read-out: Log10 GI50 (converted)
[3] = test system: K-562; test: NCI human tumor cell panel: K-562 (Leukemia); type: cell-based; settings: K562, K-562, Leukemia; for GI50: read-out: Log10 GI50 (converted); for IC (TGI): read-out: Log10 TGI (converted)
[4] = test system: MOLT-4; test: NCI human tumor cell panel: MOLT-4 (Leukemia); type: cell-based; settings: MOLT-4, Leukemia; for GI50: read-out: Log10 GI50 (converted); for IC (TGI): read-out: Log10 TGI (converted)
[5] = test system: RPMI-8226; test: NCI human tumor cell panel: RPMI-8226 (Leukemia); type: cell-based; settings: RPMI-8226, Leukemia; for GI50: read-out: Log10 GI50 (converted); for IC (TGI): read-out: Log10 TGI
[6] = test system: A549/ATCC; test: NCI human tumor cell panel: A549/ATCC (Non-Small Cell Lung Cancer); type: cell-based; settings: Non-Small Cell Lung Cancer; for GI50: read-out: Log10 GI50 (converted); for IC (TGI): read-out: Log10 TGI (converted)
[7] = test system: NCI-H226; test: NCI human tumor cell panel: NCI-H226 (Non-Small Cell Lung Cancer); type: cell-based; settings: NCI-H226, Non-Small Cell Lung Cancer; for GI50: read-out: Log10 GI50 (converted); for IC (TGI): read-out: Log10 TGI (converted)
[8] = test system: COLO 205; test: NCI human tumor cell panel: COLO 205 (Colon Cancer); type: cell-based; settings: COLO 205, Colon Cancer; for GI50: read-out: Log10 GI50 (converted); for IC (TGI): read-out: Log10 TGI (converted)
[9] = test system: HCT-116; test: NCI human tumor cell panel: HCT-116 (Colon Cancer); type: cell-based; settings: HCT-116, Colon Cancer; for GI50: read-out: Log10 GI50 (converted); for IC (TGI): read-out: Log10 TGI (converted)
[10] = test system: KM12; test: NCI human tumor cell panel: KM12 (Colon Cancer); type: cell-based; settings: KM12, Colon Cancer; for GI50: read-out: Log10 GI50 (converted); for IC (TGI): read-out: Log10 TGI (converted)
[11] = test system: SF-268; test: NCI human tumor cell panel: SF-268 (CNS Cancer); type: cell-based; settings: SF-268, CNS Cancer; for GI50: read-out: Log10 GI50 (converted); for IC (TGI): read-out: Log10 TGI (converted)
[12] = test system: MALME-3M; test: NCI human tumor cell panel: MALME-3M (Melanoma); type: cell-based; settings: MALME-3M, Melanoma; for GI50: read-out: Log10 GI50 (converted); for IC (TGI): read-out: Log10 TGI (converted)
[13] = test system: SK-MEL-5; test: NCI human tumor cell panel: SK-MEL-5 (Melanoma); type: cell-based; settings: SK-MEL-5, Melanoma; for GI50: read-out: Log10 GI50 (converted); for IC (TGI): read-out: Log10 TGI (converted)
[14] = test system: UACC-257; test: NCI human tumor cell panel: UACC-257 (Melanoma); type: cell-based; settings: UACC-257, Melanoma; for GI50: read-out: Log10 GI50 (converted); for IC (TGI): read-out: Log10 TGI (converted)
[15] = test system: UACC-62; test: NCI human tumor cell panel: UACC-62 (Melanoma); type: cell-based; settings: UACC-62, Melanoma; for GI50: read-out: Log10 GI50 (converted); for IC (TGI): read-out: Log10 TGI (converted)
[16] = test system: OVCAR-3; test: NCI human tumor cell panel: OVCAR-3 (Ovarian Cancer); type: cell-based; settings: OVCAR-3, Ovarian Cancer; for GI50: read-out: Log10 GI50 (converted); for IC (TGI): read-out: Log10 TGI (converted)
[17] = test system: OVCAR-8; test: NCI human tumor cell panel: OVCAR-8 (Ovarian Cancer); type: cell-based; settings: OVCAR-8, Ovarian Cancer; for GI50: read-out: Log10 GI50 (converted); for IC (TGI): read-out: Log10 TGI (converted)
[18] = test system: A498; test: NCI human tumor cell panel: A498 (Renal Cancer); type: cell-based; settings: A498, Renal Cancer; for GI50: read-out: Log10 GI50 (converted); for IC (TGI): read-out: Log10 TGI (converted)
[19] = test system: ACHN; test: NCI human tumor cell panel: ACHN (Renal Cancer); type: cell-based; settings: Renal Cancer; for GI50: read-out: Log10 GI50 (converted); for IC (TGI): read-out: Log10 TGI (converted)
[20] = test system: CAKI-1; test: NCI human tumor cell panel: CAKI-1 (Renal Cancer); type: cell-based; settings: CAKI-1, Renal Cancer; for GI50: read-out: Log10 GI50 (converted); for IC (TGI): read-out: Log10 TGI (converted)
[21] = test system: RXF-393; test: NCI human tumor cell panel: RXF-393 (Renal Cancer); type: cell-based; settings: RXF-393, Renal Cancer; for GI50: read-out: Log10 GI50 (converted); for IC (TGI): read-out: Log10 TGI (converted)
[22] = test system: SN12C; test: NCI human tumor cell panel: SN12C (Renal Cancer); type: cell-based; settings: Renal Cancer; for GI50: read-out: Log10 GI50 (converted); for IC (TGI): read-out: Log10 TGI (converted)
[23] = test system: DU-145; test: NCI human tumor cell panel: DU-145 (Prostate Cancer); type: cell-based; settings: DU-145, Prostate Cancer; for GI50: read-out: Log10 GI50 (converted); for IC (TGI): read-out: Log10 TGI (converted)
[24] = test system: MCF7; test: NCI human tumor cell panel: MCF7 (Breast Cancer); type: cell-based; settings: MCF7, Breast Cancer; for GI50: read-out: Log10 GI50 (converted); for IC (TGI): read-out: Log10 TGI (converted)
[25] = test system: T-47D; test: NCI human tumor cell panel: T-47D (Breast Cancer); type: cell-based; settings: T47D, Breast Cancer; for GI50: read-out: Log10 GI50 (converted); for IC (TGI): read-out: Log10 TGI (converted)
[26] = test system: panel of sixty different human tumor cell lines; test: NCI human tumor cell panel: whole panel (mean graph summary)
[27] = test system: SW-620; test: NCI human tumor cell panel: SW-620 (Colon Cancer); type: cell-based; settings: SW-620, Colon Cancer
[28] = test system: MDA-MB-231/ATCC; test: NCI human tumor cell panel: MDA-MB-231/ATCC (Breast Cancer); type: cell-based; settings: Homo sapiens, MDA-MB-231, MDA-MB-231/ATCC, Breast Cancer
[29] = read-out: Log10 GI50 (converted)
[30] = read-out: Log10 TGI (converted)

O=Cc1ccc(-c2ccc(-c3ccc[se]3)[se]2)[se]1 [NSC 675244]
GI50 [1]: 2.14 µM | IC (TGI) [1]: 7.08 µM | GI50 [2]: 2.45 µM | GI50 [3]: 1.35 µM | IC (TGI) [3]: 33.1 µM | GI50 [4]: 2.4 µM | IC (TGI) [4]: 7.59 µM | GI50 [5]: 2.95 µM | IC (TGI) [5]: > 100 µM | GI50 [6]: 13.5 µM | IC (TGI) [6]: 26.3 µM | GI50 [7]: 2.24 µM | IC (TGI) [7]: 5.13 µM | GI50 [8]: 3.16 µM | IC (TGI) [8]: 12 µM | GI50 [9]: 0.38 µM | IC (TGI) [9]: 13.8 µM | GI50 [10]: 6.31 µM | IC (TGI) [10]: 19.5 µM | GI50 [11]: 4.47 µM | IC (TGI) [11]: 57.5 µM | GI50 [12]: 12.6 µM | IC (TGI) [12]: 28.2 µM | GI50 [13]: 3.39 µM | IC (TGI) [13]: 13.8 µM | GI50 [14]: 0.309 µM | IC (TGI) [14]: 0.851 µM | GI50 [15]: 0.0708 µM | IC (TGI) [15]: 10.7 µM | GI50 [16]: 0.282 µM | IC (TGI) [16]: 7.94 µM | GI50 [17]: 9.12 µM | IC (TGI) [17]: 30.2 µM | GI50 [18]: 1.41 µM | IC (TGI) [18]: 2.95 µM | GI50 [19]: 10.2 µM | IC (TGI) [19]: 21.9 µM | GI50 [20]: 0.204 µM | IC (TGI) [20]: 0.708 µM | GI50 [21]: 1.95 µM | IC (TGI) [21]: 8.13 µM | GI50 [22]: 10 µM | IC (TGI) [22]: 22.4 µM | GI50 [23]: 12.6 µM | IC (TGI) [23]: 25.1 µM | GI50 [24]: 0.479 µM | IC (TGI) [24]: 11.5 µM | GI50 [25]: 11.2 µM | IC (TGI) [25]: 23.4 µM | GI50 ([26]; Homo sapiens, read-out: Log10 GI50, cell line not given (converted)): 3.8 µM | CC50 ([26]; Homo sapiens, read-out: Log10 LC50, cell line not given (converted)): > 100 µM | Log10 GI50 ([26]; cell line not given): −5.39 | Log10 TGI ([26]; cell line not given): −4.45

O=Cc1ccc(-c2ccc(-c3ccc(C=O)[se]3)[se]2)[se]1 [NSC 675245]
GI50 [1]: > 100 µM | IC (TGI) [1]: > 100 µM | GI50 [2]: > 100 µM | IC (TGI) ([2]; read-out: Log10 TGI): > 100 µM | GI50 [3]: 6.76 µM | IC (TGI) [3]: > 100 µM | GI50 [4]: > 100 µM | IC (TGI) [4]: > 100 µM | GI50 [5]: > 100 µM | IC (TGI) [5]: > 100 µM | GI50 [6]: > 100 µM | IC (TGI) [6]: > 100 µM | GI50 [7]: 0.977 µM | IC (TGI) [7]: 3.63 µM | GI50 [8]: > 100 µM | IC (TGI) [8]: > 100 µM | GI50 [9]: 0.692 µM | IC (TGI) [9]: > 100 µM | GI50 [10]: > 100 µM | IC (TGI) [10]: > 100 µM | GI50 [27, 29]: 4.17 µM | IC (TGI) [27, 30]: > 100 µM | GI50 [11]: > 100 µM | IC (TGI) [11]: > 100 µM | GI50 [12]: > 100 µM | IC (TGI) [12]: > 100 µM | GI50 [13]: 72.4 µM | IC (TGI) [13]: > 100 µM | GI50 [14]: 0.324 µM | IC (TGI) [14]: 0.912 µM | GI50 [15]: 0.0646 µM | IC (TGI) [15]: > 100 µM | GI50 [16]: 0.389 µM | IC (TGI) [16]: > 100 µM | GI50 [17]: > 100 µM | IC (TGI) [17]: > 100 µM | GI50 [18]: 0.309 µM | IC (TGI) [18]: 0.891 µM | GI50 [19]: 57.5 µM | IC (TGI) [19]: > 100 µM | GI50 [20]: 0.269 µM | IC (TGI) [20]: 0.933 µM | GI50 [21]: 12 µM | IC (TGI) [21]: > 100 µM | GI50 [22]: > 100 µM | IC (TGI) [22]: > 100 µM | GI50 [23]: > 100 µM | IC (TGI) [23]: > 100 µM | GI50 [24]: 1.48 µM | IC (TGI) [24]: > 100 µM | GI50 [28, 29]: > 100 µM | IC (TGI) [28, 30]: > 100 µM | GI50 [25]: 15.8 µM | IC (TGI) [25]: > 100 µM
